Source: patent publication US8722035B2, “Formulations including digestive enzymes, polysorbate-based surfactants and probiotics” (Master Supplements, Inc., priority 2007, dated 2014)

How the values were obtained:
[1] = test system: Lactobacillus acidophilus LA-1; assay: Growth of Lactobacillus acidophilus LA-1 in broth, plated on MRS agar (Examples 1 and 4); assay type: cell-based
Protocol: • I) Lactobacillus acidophilus LA-1 was inoculated at one (1) million CFU/ml into 500 ml of sterile broth medium conta Ming 2% casein, 2% corn starch, 0.1% calcium carbonate, 0.1% magnesium carbonate, and 0.05% yeast extract (Difco); a medium in which it is difficult to achieve significant Lactobacillus growth but which contains typical nutrients found in human diets. The inoculated broth (contained in 1 L Erlenmeyer flasks) was incubated at 37 C for 24 hours and then plated on MRS auar to determine CFU/ml. Result (average of triplicate samples): 12 million CFU/ml. • II) The test in (I) was repeated where the medium also contained 0.1% Tween-80. Result: 14 million CFU/ml. • III) The test in (I) was repeated where the medium was pre-treated with digestive enzymes for 24 hours prior to sterilization at 121 C for 20 minutes at 15 psi. The pre-treatment involved adding 250 mg of a lactogenic enzyme mixture containing papain (10,000 TU), bromelain (50 GDU), alpha-amylase (1,000 SKB) and glucoamylase (2.5 AG). Result: 87 million CFU/ml • IV) The test in (III) was repeated where 0.1% Tween-80 (as DP35) was added during the enzyme pre-treatment procedure. […]

[2] = test system: Lactobacillus rhamnosus HN001; assay: Growth of Lactobacillus rhamnosus HN001 in broth, plated on MRS agar (Example 2); assay type: cell-based; settings: procedures of Example 1, untreated Test I 6 million CFU/ml
Protocol: • I) Lactobacillus acidophilus LA-1 was inoculated at one (1) million CFU/ml into 500 ml of sterile broth medium conta Ming 2% casein, 2% corn starch, 0.1% calcium carbonate, 0.1% magnesium carbonate, and 0.05% yeast extract (Difco); a medium in which it is difficult to achieve significant Lactobacillus growth but which contains typical nutrients found in human diets. The inoculated broth (contained in 1 L Erlenmeyer flasks) was incubated at 37 C for 24 hours and then plated on MRS auar to determine CFU/ml. Result (average of triplicate samples): 12 million CFU/ml. • II) The test in (I) was repeated where the medium also contained 0.1% Tween-80. Result: 14 million CFU/ml. • III) The test in (I) was repeated where the medium was pre-treated with digestive enzymes for 24 hours prior to sterilization at 121 C for 20 minutes at 15 psi. The pre-treatment involved adding 250 mg of a lactogenic enzyme mixture containing papain (10,000 TU), bromelain (50 GDU), alpha-amylase (1,000 SKB) and glucoamylase (2.5 AG). Result: 87 million CFU/ml • IV) The test in (III) was repeated where 0.1% Tween-80 (as DP35) was added during the enzyme pre-treatment procedure.
• The procedures of Example 1 were repeated with Lactobacillus rhamnosus HN001 substituted for Lactobacillus acidophilus LA-1. The results are as follows: Test I): 6 million CFU/ml. Test II): 7.5 million CFU/ml. Test III): 62 million CFU/ml.

[3] = test system: Bifidobacterium lactis BL04; assay: Anaerobic growth of Bifidobacterium lactis BL04 in broth, plated on MRS agar plus L-cysteine HCl (Example 5); assay type: cell-based; settings: inoculum 2 million CFU/ml, casein/rye/asparagus/barley broth, anaerobic 37 C, 24 hours, 0.025% Tween-80, 250 mg enzyme mixture, 24 h pre-treatment, untreated Test I 8 million CFU/ml
Protocol: • I) Bifidobacterium lactis BL04 was inoculated at two (2) million CFU/ml into 500 ml of sterile broth medium containing 2% casein, 1% rye flour, 1% asparagus powder (ground freeze-dried asparagus), 1% barley flour, 0.1% calcium carbonate, 0.1% magnesium carbonate, and 0.05% yeast extract (Difco); a medium in which it is generally difficult to achieve significant Bifidobacteria growth but contains typical nutrients fbund in human diets. The inoculated broth (contained in 1 L Erlenmeyer flasks) was incubated anaerobically at 37 C for 24 hours and then plated on MRS agar plus L-cysteine HCl, to determine CFU/ml (plates were incubated anaerobically), Result (average of triplicate samples): 8 million CFU/ml. • II) The test in I) was repeated where the medium also contained 0.025% Tween-80. Result: 3 million CFU/ml. • III) The test in I) was repeated where the medium was pre-treated with digestive enzymes for 24 hours prior to sterilization at 121 C for 20 minutes at 15 psi. The pre-treatment involved adding 250 mg of a bifidogenic enzyme mixture containing cellulase-TL (1,000 CU), hemicellulase (1,000 HCU), beta-glucanase (50 BGU), papain (10,000 TU) and bromelain (50 GDU). Result 74 million CFU/ml. • IV) The test in III) was repeated where 0.025% Tween-80 was added during the enzyme pre-treatment procedure.

[4] = hydrophile-lipophile balance, designated from 1 to 20; cited from earlier work
[5] = test system: Lactobacillus paracasei F-19; assay: Growth of Lactobacillus paracasei F-19 in broth, plated on MRS agar (Example 3); assay type: cell-based; settings: procedures of Example 1, untreated Test I 14 million CFU/ml
[6] = test system: Bifidobacterium bifidum BB-12; assay: Growth of Bifidobacterium bifidum BB-12 in broth (Example 6); assay type: cell-based; settings: untreated Test I 11 million CFU/ml

Row | Compound | viable count of L. acidophilus LA-1 after incubation ([1]; Example 1, inoculum 1 million CFU/ml, casein/corn starch broth, 37 C, 24 hours, 0.1% Tween-80, 250 mg enzyme mixture, 24 h pre-treatment, untreated Test I 12 million CFU/ml) | viable count of L. rhamnosus HN001 after incubation [2] | viable count of Bifidobacterium lactis BL04 after incubation [3] | HLB [4] | viable count of L. paracasei F-19 after incubation [5] | viable count of Bifidobacterium bifidum BB-12 after incubation [6] | viable count of L. acidophilus LA-1 after incubation ([1]; Example 4, procedures of Example 1 with different enzyme mixture and Tween-60 in place of Tween-80, untreated Test I 10 million CFU/ml)
1 | CCCCCCCC/C=C\CCCCCCCC(=O)OCCOCC(OCCO)C1OCC(OCCO)C1OCCO (stereo not shown) [Tween-80, polyoxyethylene sorbitan monooleate] | 14 million CFU/ml | 7.5 million CFU/ml | 3 million CFU/ml | 15.0 | 19 million CFU/ml | 5 million CFU/ml | 
2 | polyoxyethylene sorbitan monostearate [Tween-60] |  |  |  |  |  |  | 9 million CFU/ml
